Values joined by “and” are separate entries in the source; they are usually repeats but may differ in a detail not shown here. Equal entries are not always repeated. Where two headings read alike, the source gives them in different places.
Assays:
Bdf1/Swc4 = molecular target: T1, Bdf1/Swc4 (Saccharomyces cerevisiae, UniProt P35817); experiment: NanoBiT assay, control pair; type: cell-based, S. cerevisiae; parameters: remaining activity: dose or concentration left out as unconfirmed
T1 construct: expressed in transfected cells; host or cells: S. cerevisiae
Experimental: Yeast strains were distributed in 96‐well microplates containing SC(MSG)‐U medium (SC‐U medium with 0.1% monosodium glutamate instead of ammonium sulfate as a nitrogen source) and grown at 30 °C. 40 µL of exponentially growing cells were transferred in white 96‐well half‐area microplates (ProxiPlate Plus, Greiner Bio‐One) previously filled with 40 µL per well of SC(MSG) containing 100 µM furimazine. The microplates were then incubated for 10 min in the dark before the luminescence signals were recorded using a microplate reader (Ensight, PerkinElmer). Luminescence measurements were performed for 1 s per well at a distance of 0.1 mm between the plate and the detector. The luminescence values were normalized with the optical density (OD600) of the corresponding cultures. For NanoBiT assays with BET inhibitors, yeast cultures were grown overnight at 30 °C in SC(MSG) medium in the presence of serial dilutions of 24c and I‐BET726. Overnight cultures were diluted 5 fold in SC(MSG) and incubated for 1 h before luminescence was recorded as previously indicated. Luminescence values for each condition were normalized using the average of the luminescence recorded for the Bdf1/Swc4 and Bmh1/Bmh2 controls.

[1] = test system: C. glabrata strains expressing WT and mutant Bdf1; experiment: Growth inhibition in liquid media, C. glabrata lab strains; conditions: for pEC50 growth inhibition: Fig 2C; for % Growth (OD at 600 nm): Fig 2F
Experimental: Growth on Liquid Media with C. glabrata Lab Strains: Cells were grown at 30 °C in SC+M+C‐U medium (SC medium with 5 mM methionine, 0.25 mM cysteine, without uracil) to an OD600 of 0.5–0.8. […] Plates were incubated at 30 °C and OD600 was measured using a Multiskan FC Microplate Photometer (Thermo Fisher).

C. auris Bdf1 BD1 = C. auris Bdf1 BD1 (Candidozyma auris (Candida auris), UniProt A0AAW0VEM6); experiment: HTRF assay, inhibition of H4ac4 peptide binding
Chain of C. auris Bdf1 BD1 (A0AAW0VEM6 entry or part of it): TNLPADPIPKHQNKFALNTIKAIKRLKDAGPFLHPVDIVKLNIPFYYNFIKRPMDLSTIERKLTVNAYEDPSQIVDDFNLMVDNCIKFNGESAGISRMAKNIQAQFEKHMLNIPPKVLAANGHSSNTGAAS

T1 sequence (P35817 whole entry): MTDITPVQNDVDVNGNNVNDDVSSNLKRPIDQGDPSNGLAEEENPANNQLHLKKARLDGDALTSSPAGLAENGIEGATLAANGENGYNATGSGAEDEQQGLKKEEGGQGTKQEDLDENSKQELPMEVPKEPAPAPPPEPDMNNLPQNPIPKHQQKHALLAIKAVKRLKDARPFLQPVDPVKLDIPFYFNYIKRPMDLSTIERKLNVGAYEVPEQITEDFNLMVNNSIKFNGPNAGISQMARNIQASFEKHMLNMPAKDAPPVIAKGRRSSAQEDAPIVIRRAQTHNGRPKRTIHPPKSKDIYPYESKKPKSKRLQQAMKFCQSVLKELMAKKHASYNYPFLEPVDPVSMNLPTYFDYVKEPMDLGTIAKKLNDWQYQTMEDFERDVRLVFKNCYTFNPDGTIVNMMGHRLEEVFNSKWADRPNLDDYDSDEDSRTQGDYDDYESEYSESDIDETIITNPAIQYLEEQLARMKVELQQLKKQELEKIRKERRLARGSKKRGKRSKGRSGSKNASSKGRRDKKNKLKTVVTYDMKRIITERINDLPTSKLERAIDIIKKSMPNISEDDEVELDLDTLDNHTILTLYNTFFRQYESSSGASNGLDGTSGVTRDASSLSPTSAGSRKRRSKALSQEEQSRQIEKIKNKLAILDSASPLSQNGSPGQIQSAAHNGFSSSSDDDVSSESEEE
T1 sequence (P53201 whole entry, further chain): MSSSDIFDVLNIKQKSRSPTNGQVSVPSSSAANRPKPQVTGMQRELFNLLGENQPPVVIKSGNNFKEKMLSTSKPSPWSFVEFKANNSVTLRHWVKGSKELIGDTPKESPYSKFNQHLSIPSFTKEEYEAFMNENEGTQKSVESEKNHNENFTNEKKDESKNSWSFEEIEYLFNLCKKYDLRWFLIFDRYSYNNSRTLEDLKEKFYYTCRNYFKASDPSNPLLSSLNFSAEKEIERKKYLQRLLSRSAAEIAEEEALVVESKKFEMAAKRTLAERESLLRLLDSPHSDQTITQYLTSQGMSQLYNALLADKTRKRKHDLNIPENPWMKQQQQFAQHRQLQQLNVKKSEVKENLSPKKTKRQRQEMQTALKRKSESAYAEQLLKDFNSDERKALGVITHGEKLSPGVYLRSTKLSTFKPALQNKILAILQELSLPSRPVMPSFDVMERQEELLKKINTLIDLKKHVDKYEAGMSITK

Cc1ccc(-c2nnc(C)c(NCc3ccc(C)o3)n2)cc1 [Compound 24c, 6‐methyl‐N‐((5‐methylfuran‐2‐yl)methyl)‐3‐(p‐tolyl)‐1,2,4‐triazin‐5‐amine]
remaining activity at 1562.5 µM (Bdf1/Swc4; Bdf1-SmBiT, Swc4-LgBiT, 1.5625 mM, Fig 4C, read-out: Normalized nanoBiT signal): 100%
remaining activity at 3125 µM (Bdf1/Swc4; Bdf1-SmBiT, Swc4-LgBiT, 3.1250 mM, Fig 4C, read-out: Normalized nanoBiT signal): 101%
remaining activity (Bdf1/Swc4; Bdf1-SmBiT, Swc4-LgBiT, […], Fig 4C, read-out: Normalized nanoBiT signal): 96%
inhibition of NanoBiT signal, Bdf1/Swc4 (Bdf1/Swc4; control pair independent of Bdf1 BDs): not observed
pEC50 growth inhibition ([1]; strain BD1 Y-F, single experiments Exp1-3): 4.034 and 3.821
pEC50 growth inhibition ([1]; strain BD2 Y-F, single experiments Exp1-3): 4.481 and 4.395
pEC50 (WT BDF1) ([1]; Fig 2D, WT C. glabrata, single experiments Exp1-3): 4.014 and 4.016
% Growth (OD at 600 nm) ([1]; WT BDF1, 6.25 microM): 98% and 99% and 101%
% Growth (OD at 600 nm) ([1]; WT BDF1, 12.5 microM): 95% and 97% and 99%
% Growth (OD at 600 nm) ([1]; WT BDF1, 25 microM): 88% and 91% and 95%
% Growth (OD at 600 nm) ([1]; WT BDF1, 50 microM): 65% and 71% and 69%
% Growth (OD at 600 nm) ([1]; WT BDF1, 100 microM): 44% and 45% and 46%
% Growth (OD at 600 nm) ([1]; bdf1-bd1Y166F, 6.25 microM): 99% and 101% and 98%
% Growth (OD at 600 nm) ([1]; bdf1-bd1Y166F, 12.5 microM): 102% and 92% and 98%
% Growth (OD at 600 nm) ([1]; bdf1-bd1Y166F, 25 microM): 92% and 82% and 97%
% Growth (OD at 600 nm) ([1]; bdf1-bd1Y166F, 50 microM): 88% and 74% and 81%
% Growth (OD at 600 nm) ([1]; bdf1-bd1Y166F, 100 microM): 50% and 44% and 56%
% Growth (OD at 600 nm) ([1]; bdf1-bd1Δ, 6.25 microM): 98% and 99% and 93%
% Growth (OD at 600 nm) ([1]; bdf1-bd1Δ, 12.5 microM): 93% and 98% and 97%
% Growth (OD at 600 nm) ([1]; bdf1-bd1Δ, 25 microM): 88% and 86% and 96%
% Growth (OD at 600 nm) ([1]; bdf1-bd1Δ, 50 microM): 78% and 74% and 87%
% Growth (OD at 600 nm) ([1]; bdf1-bd1Δ, 100 microM): 50% and 43% and 61%
% Growth (OD at 600 nm) ([1]; bdf1-bd2Y343F, 6.25 microM): 89% and 90% and 88%
% Growth (OD at 600 nm) ([1]; bdf1-bd2Y343F, 12.5 microM): 80% and 76% and 84%
% Growth (OD at 600 nm) ([1]; bdf1-bd2Y343F, 25 microM): 68% and 61% and 66%
% Growth (OD at 600 nm) ([1]; bdf1-bd2Y343F, 50 microM): 40% and 46%
% Growth (OD at 600 nm) ([1]; bdf1-bd2Y343F, 100 microM): 20% and 22%
% Growth (OD at 600 nm) ([1]; bdf1-bd2Δ, 6.25 microM): 68% and 85%
% Growth (OD at 600 nm) ([1]; bdf1-bd2Δ, 12.5 microM): 64% and 70% and 59%
% Growth (OD at 600 nm) ([1]; bdf1-bd2Δ, 25 microM): 40% and 63% and 41%
% Growth (OD at 600 nm) ([1]; bdf1-bd2Δ, 50 microM): 30% and 38% and 23%
%Growth ([1]; Fig 3D, 50 µM, WT BDF1-flag, Exp 1-3): 54.5% and 57.2% and 54.2%
EC50 ([1]; Nakaseomyces glabratus, read-out: EC50 (μM) growth inhibition, strain WT BDF1 (both BDs active)): 90 µM
EC50 ([1]; Nakaseomyces glabratus, read-out: EC50 (μM) growth inhibition, strain bdf1-Y166F (active BD: BD2)): ~100 µM
EC50 ([1]; Nakaseomyces glabratus, read-out: EC50 (μM) growth inhibition, strain bdf1-Y343F (active BD: BD1)): 36.6 ± 33 µM
EC50 ([1]; Nakaseomyces glabratus, read-out: EC50 (μM) growth inhibition, strain bdf1-bd1Δ (active BD: BD2)): ~100 µM
EC50 ([1]; Nakaseomyces glabratus, read-out: EC50 (μM) growth inhibition, strain bdf1-bd2Δ (active BD: BD1)): 22.7 ± 7.9 µM
EC50 ([1]; Nakaseomyces glabratus, read-out: pEC50 (WT BDF1), Fig 2D (converted), WT C. glabrata, single experiments Exp1-3): 86.5 µM
EC50 ([1]; Nakaseomyces glabratus, read-out: pEC50 growth inhibition, Fig 2C (converted), strain BD1 Y-F, single experiments Exp1-3): 107 µM
EC50 ([1]; Nakaseomyces glabratus, read-out: pEC50 growth inhibition, Fig 2C (converted), strain BD2 Y-F, single experiments Exp1-3): 36.4 µM
EC50 ([1]; read-out: EC50 (μM) growth inhibition, strain WT BDF1 (both BDs active)): 93 µM
remaining activity at 0.0021 µM (C. auris Bdf1 BD1; CauBD1, 24c 0.0021 microM, Exp1-3, read-out: Percent HTRF Signal): 100%
remaining activity at 0.0052 µM (C. auris Bdf1 BD1; CauBD1, 24c 0.0052 microM, Exp1-3, read-out: Percent HTRF Signal): 94.1%
remaining activity at 0.013 µM (C. auris Bdf1 BD1; CauBD1, 24c 0.013 microM, Exp1-3, read-out: Percent HTRF Signal): 99.7%
remaining activity at 0.033 µM (C. auris Bdf1 BD1; CauBD1, 24c 0.033 microM, Exp1-3, read-out: Percent HTRF Signal): 98.7%
remaining activity at 0.082 µM (C. auris Bdf1 BD1; CauBD1, 24c 0.082 microM, Exp1-3, read-out: Percent HTRF Signal): 99.6%
remaining activity at 0.2 µM (C. auris Bdf1 BD1; CauBD1, 24c 0.20 microM, Exp1-3, read-out: Percent HTRF Signal): 104%
remaining activity at […] (C. auris Bdf1 BD1; CauBD1, 24c 0.51 microM, Exp1-3, read-out: Percent HTRF Signal): 96.3%
remaining activity at 1.28 µM (C. auris Bdf1 BD1; CauBD1, 24c 1.28 microM, Exp1-3, read-out: Percent HTRF Signal): 91.7%
remaining activity at 3.2 µM (C. auris Bdf1 BD1; CauBD1, 24c 3.20 microM, Exp1-3, read-out: Percent HTRF Signal): 84.9%
remaining activity at 8 µM (C. auris Bdf1 BD1; CauBD1, 24c 8.00 microM, Exp1-3, read-out: Percent HTRF Signal): 83.4%
remaining activity at 20 µM (C. auris Bdf1 BD1; CauBD1, 24c 20.00 microM, Exp1-3, read-out: Percent HTRF Signal): 64.7%
inhibition of Bdf1 BD1 from C. auris (C. auris Bdf1 BD1; HTRF, Fig S9C): weakly inhibited
